# Tests used:
# human subject = conditions: person, 2 grams oral, two 000 capsules, just before kayaking
# [1] = label language of products on the market; cited from earlier work
# [2] = 2 grams oral, two 000 capsules, immediately before exercise, all subjects, self-described
# [3] = subject with diabetes, 2 grams oral, self-described
# [4] = ingested before exercise, humans
structure (smiles),measurement,setting,value
O=C([O-])[O-].O=C([O-])[O-].OO.OO.OO.[Na+].[Na+].[Na+].[Na+] [sodium percarbonate],endurance,human subjects; [2],increased
same,lactic acid burn,human subjects; [2],reduced
same,recovery during and after the session of exercise,human subjects; [2],improved
same,strength,human subjects; [2],increased
same,leg ache,"human subjects; person, 2 grams oral before StairMaster cardio session after leg training, self-described",didn't ache as much as usual
same,endurance levels,"human subjects; person, 2 grams oral before StairMaster cardio session after leg training, without breaking fast",definitely better than normal
same,breathing,human subjects; [3],feels good
same,recovery between sets,human subjects; [3],quicker
same,stamina/endurance through back workout and cardio,human subjects; [3],still feel like I could keep going
same,burning in muscles,human subject,did not feel any burning in their muscles
same,endurance,human subject,greatly increased
same,"detrimental gastrointestinal effects (nausea, diarrhea)","humans; doses of 2-10 grams in humans, preferably capsule form","did not result in nausea, diarrhea or any other detrimental gastrointestinal effects"
same,endurance,humans; [4],increased
same,"lactic acid ""burn""",humans; [4],decreased
same,recovery from exercise,humans; [4],improved
same,stimulatory effects like those of caffeine and other stimulants,humans; [4],did not have any appreciable stimulatory effects
same,strength,humans; [4],increased
same,effects of ingestion per product poisoning warning,[1],"may cause bloating, belching, irritation of the mouth and throat, nausea, vomiting, abdominal pain and diarrhea"
